Reference: patent US8703712B2, “Targeting cancer stem cells with DR5 agonists” (The UAB Research Foundation, priority 2011, dated 2014)

Key:
[1] = system: 2LMP and SUM159 ALDH+ tumorsphere cells; test: Secondary tumorsphere formation; assay type: cell-based, human; conditions: 2LMP and SUM159 sphere cells; TRAIL and 2E12 at concentrations equimolar to TRA-8
Protocol: Bars are normalized relative to untreated control and represent quadruplicate runs. Error bars denote standard deviation (SD).
(§1) • Drugs and Antibodies. Adriamycin and Taxol were purchased from Sigma Aldrich Chemical Co. (St. Louis, Mo.) and prepared as 10 mM stock solutions in distilled H2O or DMSO, respectively. Purified TRA-8 (IgG1) mAb was prepared as described previously (Ichikawa et al., Nat. Med. 7:954-60 (2001) and WO01/83560). Isotype-specific IgG1 control antibody was obtained from Southern Biotechnology Associates (Birmingham, Ala.). Anti-DR4 mAb 2E12 (IgG1, k) was described previously (WO03/37913). Super Killer TRAIL™ was purchased from Alexis Biochemicals (Plymouth Meeting, Pa.). Conjugated antibodies APC mouse anti-human CD44, PE-Cy7 rat anti-mouse CD44, and corresponding isotype control antibodies were purchased from BD Pharmingen (San Jose, Calif.). ALDEFLUOR® kit including diethylaminobenzaldehyde (DEAB) negative control was obtained from StemCell Technologies (Durham, N.C.). Cleaved caspase-8 rabbit mAb and cleaved caspase-3 rabbit mAb were purchased from Cell Signaling (Billerica, Mass.). Secondary antibodies, Alexa tluor 405 goat anti-rabbit IgG and Alexa fluor 647 goat anti-mouse IgG1 were purchased from Invitrogen (Carlsbad, Calif.). • Cells and Cell Culture. The 2LMP subclone of the human breast cancer cell line MDA-MB-231 was maintained in improved MEM supplemented with 10% FBS (Hyclone; Logan, Utah). […] BCSC markers were analyzed on attached bulk cell populations. […] Samples were sorted on a Becton-Dickinson-FACSAriaII™ or analyzed on Becton-Dickinson-LSRII™ flow cytometer (Chicago, Ill.). Data were evaluated using FlowJo software (FlowJo; Ashland, Oreg.). • DR5 Expression and Functional Caspase Activation. […] Samples were analyzed by flow cytometry for DR5 expression on the ALDH^+/CD44^+/CD24^− subpopulation. […]

2LMP ALDH+ cells [2] = test: Ex vivo treatment of sorted BCSC and tumor implantation; assay type: in vivo, NOD/SCID mice; conditions: cells treated ex vivo with 500 nM Adriamycin for 3 hours, 4×10^4 cells into mammary fat pad; by day 51
Protocol: (§2) FIGS. 14A and 14B are graphs showing ex vivo treatment of sorted BCSCs inhibited tumorigenesis and progression in NOD/SCID mice. The graphs represent average tumor size (product of two diameters).
as §1, with “Calif.).” for “Calif.). ALDEFLUOR® kit including diethylaminobenzaldehyde (DEAB) negative control was obtained from StemCell Technologies (Durham, N.C.). Cleaved caspase-8 rabbit mAb and cleaved caspase-3 rabbit mAb were purchased from Cell Signaling (Billerica, Mass.). Secondary antibodies, Alexa tluor 405 goat anti-rabbit IgG and Alexa fluor 647 goat anti-mouse IgG1 were purchased from Invitrogen (Carlsbad, Calif.). • Cells and Cell Culture. The 2LMP subclone of the human breast cancer cell line MDA-MB-231 was maintained in improved MEM supplemented with 10% FBS (Hyclone; Logan, Utah).”

SUM159 ALDH+ cells = test: as above; assay type: in vivo, NOD/SCID mice; conditions: cells treated ex vivo with 500 nM Adriamycin for 3 hours, implanted into mammary fat pad
Protocol: as §2
as §1, with “Calif.).” for “Calif.). ALDEFLUOR® kit including diethylaminobenzaldehyde (DEAB) negative control was obtained from StemCell Technologies (Durham, N.C.). Cleaved caspase-8 rabbit mAb and cleaved caspase-3 rabbit mAb were purchased from Cell Signaling (Billerica, Mass.). Secondary antibodies, Alexa tluor 405 goat anti-rabbit IgG and Alexa fluor 647 goat anti-mouse IgG1 were purchased from Invitrogen (Carlsbad, Calif.). • Cells and Cell Culture. The 2LMP subclone of the human breast cancer cell line MDA-MB-231 was maintained in improved MEM supplemented with 10% FBS (Hyclone; Logan, Utah).”

2LMP ALDH+ cells [3] = test: Annexin V-propidium iodide apoptosis assay (flow cytometry); assay type: cell-based, human; conditions: 5 μM MRK003
Protocol: 2LMP ALDH^+ cells were sorted by flow cytometry and treated with MRK003 GSI (or DMSO) for 24 hours followed by TRA-8 (or media) for an additional 24 hours before measuring ATP levels. […] Similar results were found in studies using CSC-enriched cell populations derived from sphere cultures. The results were confirmed using annexin V-propidium iodide assays and flow cytometry to measure apoptosis.

COc1cccc2c1C(=O)c1c(O)c3c(c(O)c1C2=O)C[C@@](O)(C(=O)CO)C[C@@H]3O[C@H]1C[C@H](N)[C@H](O)[C@H](C)O1 [Adriamycin]
inhibition of secondary tumorsphere formation (in words) [1]: did not completely inhibit | mice that developed tumors (2LMP ALDH+ cells [2]): Five out of five | mice that developed tumors (SUM159 ALDH+ cells): zero out of five

O=S1(=O)N[C@@]2(CN1CC(F)(F)F)[C@@H]1CC[C@H]2Cc2ccc(/C=C/CN3CCC(C(F)(F)F)CC3)cc2C1 [MRK003]
annexin-V-positive (2LMP ALDH+ cells [3]): 36%

CC(=O)O[C@H]1C(=O)[C@@]2(C)[C@H]([C@H](OC(=O)c3ccccc3)[C@]3(O)C[C@H](OC(=O)[C@H](O)[C@@H](NC(=O)c4ccccc4)c4ccccc4)C(C)=C1C3(C)C)[C@]1(OC(C)=O)CO[C@@H]1C[C@@H]2O [Taxol]
inhibition of secondary tumorsphere formation (in words) [1]: did not completely inhibit

B1: TRAIL: Super Killer TRAIL™ purchased from Alexis Biochemicals; death receptor ligand (protein, UniProt P50591 39-281, looked up)
extracellular domain: TNELKQMQDKYSKSGIACFLKEDDSYWDPNDEESMNSPCWQVKWQLRQLVRKMILRTSEETISTVQEKQQNISPLVRERGPQRVAAHITGTRGRSNTLSSPNSKNEKALGRKINSWESSRSGHSFLSNLHLRNGELVIHEKGFYYIYSQTYFRFQEEIKENTKNDKQMVQYIYKYTSYPDPILLMKSARNSCWSKDAEYGLYSIYQGGIFELKENDRIFVSVTNEHLIDMDHEASFFGAFLVG
modifications: extracellular domain Super Killer TRAIL engineered soluble form
notes: Super Killer TRAIL™ purchased from Alexis Biochemicals; death receptor ligand
inhibition of secondary tumorsphere formation (in words) [1]: only partially inhibitory
